Source: patent US5079257A, “Indoloquinone compounds” (priority 1986, dated 1992)
In brackets after ≈: the same amount, converted by molar mass. Like-named read-outs stand apart in the source and are kept apart here.

Columns and labels:
[1] = tested on: L1210 cells; assay: L1210 activity (bioliquid assay), cytotoxicity; assay type: cell-based; conditions: for IC50: Mus musculus; for ID-50 L1210: Table VI, 2880 min
From the text: The indoloquinones II (formula II) have been tested in respect of their cytotoxic activity against L1210 cells and R-1 cells (Rhabdomyosarcoma Cells) in a bioliquid assay at the department of oncology of the Free University of Amsterdam (Table I). In addition to this seven compounds (E.O. 1, E.O. 2, E.O. 4, E.O. 7, E.O. 9, E.O. 16 and E.O. 17) have been tested on L1210 activity in a clonogenic assay at TNO, Rijswijk. Further, the lowest active doses of the compounds E.O. 1, E.O. 2, E.O. 4 and E.O. 9 have been determined at TNO Rijswijk, according to the method described by Lamberts et al. [Oncology, 40, 301 (1983)]. (Table II). Eight indoloquinones (E.O. 1, E.O. 2, E.O. 4, E.O. 4A, E.O. 8, E.O. 9, E.O. 33 and E.O. 35) have been tested in a panel of five human tumour lines (TNO Rijswijk; Table III). From the latter group three indoloquinones (E.O. 1, E.O. 4 and E.O. 9) have been selected for a cytotoxicity study, involving five slowly growing human tumour lines (University of Freiburg; Table IV).
For this purpose, L1210 cells were grown, as suspension, in Falcon multi-wells (growth area: 9.6 cm^2) using RPMI supplemented with 15% FCS and 2-mercapto-ethanol (60 μmol) as medium. In this medium, the cells were continuously incubated with the compound to be tested at 37° C. in an atmosphere of 5% CO2 in humidified air for 48 hours. Thereupon they were counted on a Sysmex microcell counter (CC110).
(§1) The in vitro L1210 and R-1 activities of the indoloquinones (formula III), were also determined in the bioliquid assays as described above.

[2] = tested on: R-1 cells (Rhabdomyosarcoma Cells); assay: R-1 activity (bioliquid assay), cytotoxicity; assay type: cell-based; conditions: Rhabdomyosarcoma cell
From the text: The indoloquinones II (formula II) have been tested in respect of their cytotoxic activity against L1210 cells and R-1 cells (Rhabdomyosarcoma Cells) in a bioliquid assay at the department of oncology of the Free University of Amsterdam (Table I). […] (Table II). Eight indoloquinones (E.O. 1, E.O. 2, E.O. 4, E.O. 4A, E.O. 8, E.O. 9, E.O. 33 and E.O. 35) have been tested in a panel of five human tumour lines (TNO Rijswijk; Table III).
For the determination of the R-1 activity, Rhabdomyosarcoma cells were brought into Falcon multiwells (growth area: 9.6 cm^2) (~10^6 cells per dish) containing 3 ml of Dulbecco's medium supplemented with 10% Foeto Calf Serum (FCS). […] Thereupon the drug solution was removed and the cells were covered with fresh medium. After 48 hours the cells were trypsinized and counted on a Sysmex microcell counter (CC110).
as §1

[3] = Half-wave reduction potentials / polarography (University of Utrecht); assay type: physicochemical; conditions: for E1/2, halve wave reduction potential: Table IA, only the first (quinone) reduction potential
From the text: *The halve wave reduction potentials (E1/2) have been determined at the
Pharmaceutical Laboratory of University of Utrecht. Only the first
(quinone) reduction potential has been given.
Additional evidence for the occurrence of a bioreductive activation mechanism during the cytotoxic action of indoloquinones (II) was obtained via electrochemical studies, which have been carried out at the Pharmaceutical Laboratory of the University of Utrecht. […]

[4] = L1210, 48 h, Table IA, para-indoloquinone diesters, read-out: ID-50 L1210
[5] = Table IA, para-indoloquinone diesters, read-out: ID-50 R-1
[6] = L1210, Table I, bioliquid assay, 48 hours, read-out: ID-50 L1210
[7] = Table I, bioliquid assay, read-out: ID-50 R-1

COC(=O)/C=C/c1c(C(=O)OC)c2c(n1C)C(=O)C=C(NCC(O)CO)C2=O (centres unmarked) [E.O. 23, Methyl 5-(2,3-dihydroxypropyl-1-amino)-3-methoxycarbonyl-1-methyl-2-[1H-indole-4,7-dione]acrylate]
IC50 [1, 4]: > 10 µg/mL
IC50 [2, 5]: > 10 µg/mL
E1/2, halve wave reduction potential [3]: -343 mV

Cn1c(/C=C/CO)c(CO)c2c1C(=O)C=C(N1CCC(O)CC1)C2=O [E.O. 11, 3-Hydroxymethyl-5-(4-hydroxypiperidino)-1-methyl-2-[1H-indole-4,7-dione]prop-β-en-α-ol]
IC50 [1, 6]: > 10 µg/mL
ID-50 L1210 [1]: > 10 µg/mL
IC50 [2, 7]: > 10 µg/mL
IC50 ([2]; Table VI, read-out: ID-50 R-1): > 10 µg/mL
half-wave potential E1.2, wave I ([3]; pH = 8 vs Ag/AgCl): -430 mV

CC(=O)OC/C=C/c1c(COC(C)=O)c2c(n1C)C(=O)C=C(NCC(O)CO)C2=O (stereo not drawn) [E.O. 6, 3-Acetoxymethyl-5-(2,3-dihydroxypropyl-1-amino)-1-methyl-2-[1H-indole-4,7-dione]prop-β-en-α-yl acetate]
IC50 [1, 6]: > 10 µg/mL
ID-50 L1210 [1]: > 10 µg/mL
IC50 [2, 7]: > 10 µg/mL
IC50 ([2]; Table VI, read-out: ID-50 R-1): > 10 µg/mL
direct current polarogram ([3]; DC-polarography): two or more reduction waves
half-wave potential E1.2, wave I ([3]; pH = 8 vs Ag/AgCl): -515 mV
half-wave potential E1.2, wave III ([3]; pH = 8 vs Ag/AgCl): -600 mV
half-wave potential E1.2, wave IV ([3]; pH = 8 vs Ag/AgCl): -985 mV

COC(=O)/C=C/c1c(C(=O)OC)c2c(n1C)C(=O)C=C(N1CCOCC1)C2=O [E.O. 55, Methyl 3-methoxycarbonyl-1-methyl-5-morpholino-2-[1H-indole-4,7-dione]acrylate]
IC50 [1, 4]: 1.4 µg/mL (≈ 3.6 µM)
IC50 [2, 5]: 8.9 µg/mL (≈ 22.9 µM)
E1/2, halve wave reduction potential [3]: -240 mV

Cn1c(/C=C/CO)c(CO)c2c1C(=O)C=C(N1CCOCC1)C2=O [E.O. 12, 3-Hydroxymethyl-1-methyl-5-morpholino-2-[1H-indole-4,7-dione]prop-β-en-α-ol]
IC50 [1, 6]: 3.8 µg/mL (≈ 11.4 µM)
IC50 [2, 7]: > 10 µg/mL
IC50 ([2]; Table VI, read-out: ID-50 R-1): > 10 µg/mL
half-wave potential E1.2, wave I ([3]; pH = 8 vs Ag/AgCl): -420 mV

COC(=O)/C=C/c1[nH]c2c(c1C(=O)OC)C(=O)C(OC)=CC2=O [E.O. 29, Methyl 5-methoxy-3-methoxycarbonyl-2-[1H-indole-4,7-dione]acrylate]
IC50 [1, 4]: 2.2 µg/mL (≈ 6.89 µM)
IC50 [2, 5]: 4.9 µg/mL (≈ 15.3 µM)
E1/2, halve wave reduction potential [3]: -211 mV

COC(=O)/C=C/c1c(C(=O)OC)c2c(n1C)C(=O)C(C)=C(N1CC1)C2=O [E.O. 34, Methyl 5-aziridino-1,6-dimethyl-3-methoxycarbonyl-2-[1H-indole-4,7-dione]acrylate]
IC50 ([1]; L1210, 48 h, read-out: ID-50 L1210, Table IA, para-indoloquinone diesters): 2.7 µg/mL (≈ 7.53 µM)
IC50 ([2]; read-out: ID-50 R-1, Table IA, para-indoloquinone diesters): 2.8 µg/mL (≈ 7.81 µM)
E1/2, halve wave reduction potential [3]: -239 mV
